The nature of series [1]: Viscosity of concentrated aqueous solution. The note with it: aqueous solution of sodium salt, 0.330 mol/kg, 2.0% sodium chloride; at 20° C. The series is classed as physicochemical. As to the method:
(§1) A solution of 21.3 parts aniline-2,5-disulphonic acid and 6.7 parts sodium hydroxide in 30 parts water is added to a stirred suspension of 15.5 parts cyanuric chloride in 50 parts ice water. The pH is kept at 6 by the dropwise addition of 30% sodium hydroxide. The mixture is stirred below 10° C. until primary aromatic amine groups can no longer be detected by the diazo reaction. A solution of 14.8 parts 4,4′-diaminostilbene-2,2′-disulphonic acid and 3.2 parts sodium hydroxide in 20 parts water is then added, the pH is adjusted to between 6.5 and 7.5 by the addition of 30% sodium hydroxide and the mixture is stirred at 30° C. until a negative diazo reaction is obtained. A solution of 12.2 parts L-aspartic acid in 22.9 parts 16% sodium hydoxide is added, and the mixture is heated at reflux for 6 hours, the pH being kept at 7.5 to 8.5 by the addition of 30% sodium hydroxide. The aqueous solution so-formed of (2) in the form of its sodium salt, which is approximately 0.167 mol/kg in concentration, is desalinated by membrane filtration and concentrated to 0.330 mol/kg (50% by weight).
(§2) An aqueous solution of (3) in the form of its sodium salt at a concentration of 0.330 mol/kg (51% by weight) is prepared as described in Example 1 but using 13.5 parts L-glutamic acid in place of 12.2 parts L-aspartic acid.

Series [2] can be described thus: Storage stability of concentrated aqueous solution (precipitation at 5° C.). The series is classed as physicochemical. The note with it: aqueous solution of sodium salt, 0.330 mol/kg, 2.0% sodium chloride, no solubilizing agent; 2 weeks at 5° C. As to the method:
as §1, §2

For `O=C(O)CC(Nc1nc(Nc2ccc(/C=C/c3ccc(Nc4nc(Nc5cc(S(=O)(=O)O)ccc5S(=O)(=O)O)nc(NC(CC(=O)O)C(=O)O)n4)cc3S(=O)(=O)O)c(S(=O)(=O)O)c2)nc(Nc2cc(S(=O)(=O)O)ccc2S(=O)(=O)O)n1)C(=O)O` (stereo not shown) [Example 1], the viscosity in series [1] was 0.23-0.25 Pa.s. Moreover, the precipitation on storage result in series [2] was “no signs of precipitation”.

As for `O=C(O)CCC(Nc1nc(Nc2ccc(/C=C/c3ccc(Nc4nc(Nc5cc(S(=O)(=O)O)ccc5S(=O)(=O)O)nc(NC(CCC(=O)O)C(=O)O)n4)cc3S(=O)(=O)O)c(S(=O)(=O)O)c2)nc(Nc2cc(S(=O)(=O)O)ccc2S(=O)(=O)O)n1)C(=O)O` (stereo not shown) [Example 2], in series [1], the viscosity is reported as 0.23-0.25 Pa.s. The precipitation on storage result in series [2] is recorded as “no signs of precipitation”.

Source of the values: patent US20070186358A1, “Concentrated optical brightener solutions” (priority 2004, published 2007).
